Experimental findings from US20130296436A1, “AMIDINE COMPOUNDS AND USE THEREOF FOR PLANT DISEASE CONTROL” (SUMITOMO CHEMICAL COMPANY, LIMITED, priority 2010, published 2013) are described below.

The subject of this assay is Pyrenophora teres. The assay is described as follows: Test Example 8: barley Pyrenophora teres, foliar application before inoculation, 50 ppm. Format: in vivo. To be noted: barley (Nishinohoshi), 50 ppm foliar application, inoculated two days after, 3 days + 7 days.

`CCN(C)/C=N/c1cc(C)c(OCC(F)(F)C(F)(F)C(F)(F)C(F)(F)C(F)(F)F)cc1C` [present compound 7]: the “lesion area on the treated plant relative to the area of lesions on an untreated plant” value was at most 30%.
